We go through 2 compounds from patent US12668797B2, “Compositions and methods for treating chronic myelomonocytic leukemia” (H. Lee Moffitt Cancer Center and Research Institute, Inc., priority 2019, dated 2026).

In one data set the test system is THP-1 xenografts. Nature of the data set: THP-1 MALAT1 KO / WT xenografts treated with ATRA. It counts as in vivo, mice. The text has this:
Multiple MALAT1 depleted THP-1 leukemia cell line clones have been generated utilizing dual sgRNA-targeted CRISPR technology and partnered with IONIS pharmaceuticals to test clinical grade MALAT1 ASOs in a panel of cell lines. These reagents were used to evaluate the effects of MALAT1 depletion on the above cellular processes to include proliferation, cell cycle, and differentiation. […] Additionally, these models were used to test the impact of MALAT1 depletion on normal and leukemic stem cell self-renewal capacity as well as rigorously interrogated the numbers of hematopoietic stem and progenitor cells upon MALAT1 depletion. Leukemia human cell line xenograft models were used to test the in vivo consequence of MALAT1 depletion with the above CRISPR generated clones.
Differentiation syndrome is a common serious adverse event in human leukemia patients treated with differentiating agents. It is primarily characterized by an inflammatory reaction often a result of differentiated myeloid cells accumulating in target organs, especially the lungs.

For data set [1], the system named is NRAS^Q61R/+ and NRAS^Q61R/+/MALAT1^KO/KO transplanted mice. Description: ATRA treatment of primary transplants from NRAS Q61R/+ GEM model of CMML. It counts as in vivo. Particulars: ATRA intraperitoneally. The text has this: To validate the differentiation effect in vivo primary transplants were generated from NRAS^Q61R/+/MALAT1^KO/KO and NRAS^Q61R/+ followed by treatment with ATRA. […] Differentiation syndrome is a treatable but potentially fatal complication of approved therapies which induce differentiation in myeloid neoplasms hallmarked by increases in myeloid cell adhesion, invasion, and ultimately lung infiltration. There was a higher proportion of terminally differentiated cells in the lungs of NRAS^Q61R/+/MALAT1^KO/KO mice compared to controls (FIG. 8B). Further, MALAT1 depleted THP-1 cells had increased adhesion and endothelial migration compared to controls consist with an increased potential for differentiation syndrome (FIG. 8C).

The subject of data set [2] is acute promyelocytic leukemia (APL). The following applies: ATRA based therapy in APL; cited from earlier work.
Another data set relates to human leukemic cells. Description: Differentiation markers CD11b and CD14 by flow cytometry in human leukemic cells. The data set is classed as cell-based. Particulars: stimulated cells, MALAT1 depleted versus control cells. On the technique in general: A flow cytometer gives signals particle by particle.
The subject of another data set is THP-1 cells. Description: Differentiation of THP-1 MALAT1 CRISPR KO cells (CD11b/CD14). It counts as cell-based, human. The following applies: MALAT1 depleted THP-1 versus control; ATRA 1 μM for 96 h (FIG. 7C). The text has this: To confirm that MALAT1 depletion could induce differentiation in human models of leukemia, MALAT1's major transcriptional start site was deleted via CRISPR/Cas9 as previously described in several single cell derived clones of the THP-1 cell line. THP-1 cells were chosen because they were derived from a patient with acute monocytic leukemia, they harbor an NRAS mutation, and they had the highest levels of MALAT1 in our screen of myeloid cell lines.

Data set [3] concerns myelomonocytic leukemia cell lines. Nature of the data set: Apoptosis in myelomonocytic leukemia cell lines. The data set is classed as cell-based, human.
Another data set relates to CMML patients. Particulars: 10 CMML patients, 45mg/m^2 of ATRA daily; cited from earlier work.

Turning to `CC1=C(/C=C/C(C)=C/C=C/C(C)=C/C(=O)O)C(C)(C)CCC1` [ATRA, all-trans retinoic acid], in the data set on THP-1 xenografts (ATRA treated MALAT1 KO NSG xenografts, FIG. 1), the differentiation syndrome entry was “evidence of differentiation syndrome”. Moreover, the “survival of xenografted mice” value in the data set on THP-1 xenografts (MALAT1 depleted xenografts treated with ATRA, pilot experiment) was “succumbed one-week post-ATRA therapy”. The “survival of xenografted mice” value in the data set on THP-1 xenografts (WT xenografts treated with ATRA) is “remained unaffected”. In addition, the “differentiation markers (Gr-1/Mac-1)” value in data set [1] was “statistically significant differences”. Moreover, the cure rates in data set [2] is roughly 95%. Further, the “differentiation markers CD11b and CD14 by flow cytometry upon stimulation” value in the data set on human leukemic cells is “enhanced”. For the same compound, the “response of differentiation markers” value in the data set with THP-1 cells was “more robust response”. The dose-dependent apoptosis entry in data set [3] (ATRA alone) is on record as “did not cause a robust dose-dependent apoptosis”. Moreover, in data set [3] (ATRA in combination with MALAT1 depletion), the apoptosis entry is listed as “induced apoptosis in a dose-dependent manner”. Also, the “induction of apoptosis following ATRA treatment” value in data set [3] (FIG. 2, ATRA treatment) is “minimal induction of apoptosis”. In addition, in the data set with CMML patients, the “patients who developed differentiation syndrome” value is 2 patients, the “patients who succumbed to differentiation syndrome” value was 1 patients and the “patients with improvement in transfusion requirements” value is listed as “four”.
In the case of `CCCCCCCCCCCCCC(=O)O[C@@H]1[C@@H](C)[C@@]2(O)[C@@H](C=C(CO)C[C@]3(O)C(=O)C(C)=C[C@@H]23)[C@@H]2C(C)(C)[C@]12OC(C)=O` [PMA, phorbol myristate acetate], the “differentiation markers CD11b and CD14 by flow cytometry upon stimulation” value in the data set on human leukemic cells is given as “enhanced”. The “response of differentiation markers” value with THP-1 cells is “more robust response”.
